Assay [1] concerns the target T1, IRAK4 (Homo sapiens (Human), UniProt Q9NWZ3). Kind of assay: IRAK4 Degradation HiBiT Assay. Particulars: HiBiT-tagged Jurkat cells, 4 hrs; for Dmax: Jurkat; for DC50: read-out: Cellular IRAK4 HiBiT: DC50. (The HiBiT peptide binds its large partner to form an active luciferase.)
Target sequence in this assay (Q9NWZ3 whole entry): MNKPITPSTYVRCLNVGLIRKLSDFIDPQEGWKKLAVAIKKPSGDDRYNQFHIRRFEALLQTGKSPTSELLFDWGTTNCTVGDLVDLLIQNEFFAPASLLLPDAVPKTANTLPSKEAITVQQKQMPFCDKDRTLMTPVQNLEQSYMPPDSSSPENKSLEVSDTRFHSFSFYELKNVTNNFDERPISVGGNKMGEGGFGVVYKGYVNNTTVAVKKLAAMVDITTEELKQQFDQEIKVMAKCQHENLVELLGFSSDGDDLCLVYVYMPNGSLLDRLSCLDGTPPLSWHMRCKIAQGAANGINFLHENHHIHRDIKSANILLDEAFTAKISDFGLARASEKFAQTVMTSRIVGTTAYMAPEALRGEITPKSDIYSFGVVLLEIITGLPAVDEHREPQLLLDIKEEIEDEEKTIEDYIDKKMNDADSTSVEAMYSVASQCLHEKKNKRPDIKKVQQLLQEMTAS
Assay [2] concerns the target T1, IRAK4. Kind of assay: IRAK4 Biochemical HTRF Kinase Assay. To be noted: read-out: IRAK4 HTRF biochemical: IC50. In short, it runs like this: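 HTRF KinEASE STK S1 format measuring IRAK4 phosphorylation of biotinylated peptide; reaction solution of 5 μM STK-S1, 10 mM ATP, 10 mM MgCl2 added (stock, to 10 μl final), 90 min at ambient temperature, detection 60 min. IC50 from sixteen-point duplicate curves by non-linear regression.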
Target sequence in this assay (Q9NWZ3 whole entry, species assumed): as the sequence (Q9NWZ3 whole entry) above
A general note: In TR-FRET formats the signal depends on donor and acceptor labels being close together.

Where [3] appears, read: read-out: Cellular IRAK4 HiBiT: Dmax, Table 4.
[4] abbreviates: read-out: Cellular IRAK4 HiBiT: Dmax, Table 5, multiple runs.

Where two headings read alike, the source gives them in different places.

As for `CC(C)Nc1cc(-c2ccc3cc(C#N)cnn23)ncc1-c1nnc(N2CCN(C(=O)CNc3cccc4c3C(=O)N(C3CCC(=O)NC3=O)C4=O)CC2)s1` (centres unmarked) [Example 31, 7-(5-(5-(4-((2-(2,6-dioxopiperidin-3-yl)-1,3-dioxoisoindolin-4-yl)glycyl)piperazin-1-yl)-1,3,4-thiadiazol-2-yl)-4-(isopropylamino)pyridin-2-yl)pyrrolo[1,2-b]pyridazine-3-carbonitrile], the Dmax in assay [1] (setting [3]) and in assay [1] (setting [4]) was 39% each time. Also, the DC50 (commonly the midpoint of the concentration-degradation curve) in assay [1] (Table 4) was 106 nM; in assay [1] (Table 5, multiple runs), 105 nM. The IC50 (commonly the midpoint of a concentration-inhibition curve) was 1.8 nM in assay [2] (Table 4) and 1.7 nM in assay [2] (Table 5, multiple runs).
Consider `CC(C)Nc1cc(-c2ccc3cc(C#N)cnn23)ncc1-c1nnc(N2CCN(CC3CCN(c4cccc5c4n(C)c(=O)n5C4CCC(=O)NC4=O)CC3)CC2)s1` (centres unmarked) [Example 32, 7-(5-(5-(4-((1-(1-(2,6-dioxopiperidin-3-yl)-3-methyl-2-oxo-2,3-dihydro-1H-benzo[d]imidazol-4-yl)piperidin-4-yl)methyl)piperazin-1-yl)-1,3,4-thiadiazol-2-yl)-4-(isopropylamino)pyridin-2-yl)pyrrolo[1,2-b]pyridazine-3-carbonitrile], for which the Dmax in assay [1] (setting [3]) and in assay [1] (setting [4]) was 37% in each case. Also, the 50% degradation concentration (DC50) worked out at 152 nM in assay [1] (Table 4) and 153 nM in assay [1] (Table 5, multiple runs). The concentration for half-maximal inhibition (IC50) amounted to 2.3 nM in assay [2] (Table 4) and 2.5 nM in assay [2] (Table 5, multiple runs).
Consider `CC(C)Nc1cc(-c2ccc3cc(C#N)cnn23)ncc1-c1nnc(N2CCN(CC3CCN(c4ccc(C(=O)NC5CCC(=O)NC5=O)nc4)CC3)CC2)s1` (centres unmarked) [Example 33, 5-(4-((4-(5-(6-(3-cyanopyrrolo[1,2-b]pyridazin-7-yl)-4-(isopropylamino)pyridin-3-yl)-1,3,4-thiadiazol-2-yl)piperazin-1-yl)methyl)piperidin-1-yl)-N-(2,6-dioxopiperidin-3-yl)picolinamide], for which the maximal degradation (Dmax) (in general, the largest share of the target that was removed) in assay [1] (setting [3]) was determined as 14%. In addition, the DC50 in assay [1] (Table 4) is above 10000 nM; in assay [1] (Table 5, multiple runs), above 9980 nM. The IC50 turned out to be 2.1 nM in assay [2] (Table 4) and 2.1 nM in assay [2] (Table 5, multiple runs).
Regarding `CC(C)Nc1cc(-c2ccc3cc(C#N)cnn23)ncc1-c1nnc(N2CCN(CC3CCN(c4ccc(C(=O)N(C)C5CCC(=O)NC5=O)cc4)CC3)CC2)s1` (centres unmarked) [Example 34, 4-(4-((4-(5-(6-(3-cyanopyrrolo[1,2-b]pyridazin-7-yl)-4-(isopropylamino)pyridin-3-yl)-1,3,4-thiadiazol-2-yl)piperazin-1-yl)methyl)piperidin-1-yl)-N-(2,6-dioxopiperidin-3-yl)-N-methylbenzamide], the Dmax in assay [1] (setting [3]) and in assay [1] (setting [4]) was 85% throughout. Further, the half-maximal degradation concentration (DC50) in assay [1] (Table 4) is 326 nM; in assay [1] (Table 5, multiple runs) it was 326 nM. The IC50 amounted to 2 nM in assay [2] (Table 4) and 2 nM in assay [2] (Table 5, multiple runs).
Turning to `Cc1ncsc1-c1ccc([C@H](C)NC(=O)[C@@H]2C[C@@H](O)CN2C(=O)[C@@H](NC(=O)CCCCCCCC(=O)N2CCN(c3nnc(-c4cnc(-c5ccc6cc(C#N)cnn56)cc4NC(C)C)s3)CC2)C(C)(C)C)cc1` [Example 36, (2S,4R)-1-((S)-2-(9-(4-(5-(6-(3-cyanopyrrolo[1,2-b]pyridazin-7-yl)-4-(isopropylamino)pyridin-3-yl)-1,3,4-thiadiazol-2-yl)piperazin-1-yl)-9-oxononanamido)-3,3-dimethylbutanoyl)-4-hydroxy-N—((S)-1-(4-(4-methylthiazol-5-yl)phenyl)ethyl)pyrrolidine-2-carboxamide], the results for the Dmax in assay [1] (setting [3]) and in assay [1] (setting [4]) were 84% and 85%, respectively. The half-maximal degradation concentration (DC50) stood at 315 nM in assay [1] (Table 4) and 287 nM in assay [1] (Table 5, multiple runs). For the same compound, the IC50 in assay [2] (Table 4) was found to be 13.4 nM; in assay [2] (Table 5, multiple runs) it was 13.4 nM.
Regarding `Cc1ncsc1-c1ccc([C@H](C)NC(=O)[C@@H]2C[C@@H](O)CN2C(=O)[C@@H](NC(=O)CCCCCC(=O)N2CCN(c3nnc(-c4cnc(-c5ccc6cc(C#N)cnn56)cc4NC(C)C)s3)CC2)C(C)(C)C)cc1` [Example 37, (2S,4R)-1-((S)-2-(7-(4-(5-(6-(3-cyanopyrrolo[1,2-b]pyridazin-7-yl)-4-(isopropylamino)pyridin-3-yl)-1,3,4-thiadiazol-2-yl)piperazin-1-yl)-7-oxoheptanamido)-3,3-dimethylbutanoyl)-4-hydroxy-N—((S)-1-(4-(4-methylthiazol-5-yl)phenyl)ethyl)pyrrolidine-2-carboxamide], the Dmax in assay [1] (setting [3]) and in assay [1] (setting [4]) was 98% each time. Besides, the DC50 in assay [1] (Table 4) amounted to 240 nM; in assay [1] (Table 5, multiple runs), 220 nM. The IC50 in assay [2] (Table 4) was 6 nM; in assay [2] (Table 5, multiple runs) it was 6 nM.
As for `Cc1ncsc1-c1ccc([C@H](C)NC(=O)[C@@H]2C[C@@H](O)CN2C(=O)[C@@H](NC(=O)CCCCCCCCCC(=O)N2CCN(c3nnc(-c4cnc(-c5ccc6cc(C#N)cnn56)cc4NC(C)C)s3)CC2)C(C)(C)C)cc1` [Example 38, (2S,4R)-1-((S)-2-(11-(4-(5-(6-(3-cyanopyrrolo[1,2-b]pyridazin-7-yl)-4-(isopropylamino)pyridin-3-yl)-1,3,4-thiadiazol-2-yl)piperazin-1-yl)-11-oxoundecanamido)-3,3-dimethylbutanoyl)-4-hydroxy-N—((S)-1-(4-(4-methylthiazol-5-yl)phenyl)ethyl)pyrrolidine-2-carboxamide], the greatest degradation seen (Dmax) in assay [1] (setting [3]) and in assay [1] (setting [4]) was 34% each time. The 50% degradation concentration (DC50) in assay [1] (Table 4) was found to be 128 nM; in assay [1] (Table 5, multiple runs) it was 128 nM. Moreover, the IC50 stood at 10.4 nM in assay [2] (Table 4) and 10.4 nM in assay [2] (Table 5, multiple runs).
Consider `Cc1ncsc1-c1ccc([C@H](C)NC(=O)[C@@H]2C[C@@H](O)CN2C(=O)[C@@H](NC(=O)CCCCC(=O)N2CCN(c3nnc(-c4cnc(-c5ccc6cc(C#N)cnn56)cc4NC(C)C)s3)CC2)C(C)(C)C)cc1` [Example 39, (2S,4R)-1-((S)-2-(6-(4-(5-(6-(3-cyanopyrrolo[1,2-b]pyridazin-7-yl)-4-(isopropylamino)pyridin-3-yl)-1,3,4-thiadiazol-2-yl)piperazin-1-yl)-6-oxohexanamido)-3,3-dimethylbutanoyl)-4-hydroxy-N—((S)-1-(4-(4-methylthiazol-5-yl)phenyl)ethyl)pyrrolidine-2-carboxamide], for which the greatest degradation seen (Dmax) in assay [1] (setting [3]) and in assay [1] (setting [4]) was 97% each time. For the same compound, the DC50 in assay [1] (Table 4) amounted to 357 nM; in assay [1] (Table 5, multiple runs), 357 nM. Moreover, the IC50 came out at 5 nM in assay [2] (Table 4) and 5 nM in assay [2] (Table 5, multiple runs).
With `Cc1ncsc1-c1ccc([C@H](C)NC(=O)[C@@H]2C[C@@H](O)CN2C(=O)[C@@H](NC(=O)CCC(=O)N2CCN(c3nnc(-c4cnc(-c5ccc6cc(C#N)cnn56)cc4NC(C)C)s3)CC2)C(C)(C)C)cc1` [Example 40, (2S,4R)-1-((S)-2-(4-(4-(5-(6-(3-cyanopyrrolo[1,2-b]pyridazin-7-yl)-4-(isopropylamino)pyridin-3-yl)-1,3,4-thiadiazol-2-yl)piperazin-1-yl)-4-oxobutanamido)-3,3-dimethylbutanoyl)-4-hydroxy-N—((S)-1-(4-(4-methylthiazol-5-yl)phenyl)ethyl)pyrrolidine-2-carboxamide], the Dmax in assay [1] (setting [3]) and in assay [1] (setting [4]) was 53% throughout. For the same compound, the DC50 stood at 420 nM in assay [1] (Table 4) and 419 nM in assay [1] (Table 5, multiple runs). The IC50 in assay [2] (Table 4) is 3.6 nM; in assay [2] (Table 5, multiple runs), 3.6 nM.
